From patent US20170266156A1, “METHOD FOR PREVENTING CANCER BY USING PHTHALIDES” (National Sun Yat-sen University, priority 2016, published 2017)

Target: hemoglobin (Hb) (Homo sapiens, UniProt P68871+P69905)
Assay: oxygen equilibrium curves / P50 of hemoglobin treated with 2,3-BPG and phthalide compounds
Format: biochemical
Conditions: for effect of phthalide compound together with 2,3-BPG (lowering the oxygen affinity of hemoglobin): FIG. 1
Excerpt: The oxygen affinity of hemoglobin is commonly characterized by P50 value. The P50 value is the required oxygen partial pressure for hemoglobin to achieve 50% oxygen saturation.

Sequence of hemoglobin (Hb) (P69905 2-142 limits assumed): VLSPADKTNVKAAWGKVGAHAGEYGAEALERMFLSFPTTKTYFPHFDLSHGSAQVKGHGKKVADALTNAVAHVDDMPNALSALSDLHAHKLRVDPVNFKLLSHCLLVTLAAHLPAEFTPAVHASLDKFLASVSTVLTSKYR
Sequence of hemoglobin (Hb) (P68871 2-147 limits assumed): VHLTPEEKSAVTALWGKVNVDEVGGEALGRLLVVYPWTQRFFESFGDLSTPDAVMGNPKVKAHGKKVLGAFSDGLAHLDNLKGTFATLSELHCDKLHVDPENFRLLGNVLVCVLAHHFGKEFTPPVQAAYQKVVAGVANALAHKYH

oxygen release efficiency of hemoglobin (1.2 mM 2,3-BPG, PO2 of 20 mmHg) | oxygen saturation fraction of hemoglobin (1.2 mM 2,3-BPG, PO2 of 20 mmHg) | oxygen saturation fraction of hemoglobin (Hb) (12 mM 2,3-BPG, fixed oxygen partial pressure of 20 mmHg, 80% where no 2,3-BPG is present) | oxygen release efficiency (12 mM 2,3-BPG, oxygen partial pressure 20 mmHg, 20% without 2,3-BPG) | change of P50 value with 2,3-BPG concentration (FIG. 2, various 2,3-BPG concentrations up to 12.0 mM) | P50 value (approximately 4 mM 2,3-BPG, no phthalide compound) | SMILES | effect of phthalide compound together with 2,3-BPG (lowering the oxygen affinity of hemoglobin)
40% | approximately 60% | 35% | 65% | higher | 18.8 mmHg | O=C(O)C(COP(=O)(O)O)OP(=O)(O)O (centres unmarked) [2,3-BPG, 2,3-bisphosphorglycerate] | 
 |  |  |  |  |  | CCC/C=C1\OC(=O)C2=C1CCC=C2 [Z-ligustilide] | synergistic effect
 |  |  |  |  |  | CCC/C=C1\OC(=O)C2=C1CC[C@@H](O)[C@@H]2O [senkyunolide I] | synergistic effect
